Source: patent US7964531B2, “3-phenoxy-4-pyridazinol derivatives and herbicidal composition containing the same” (Mitsui Chemicals Agro, Inc., priority 2001, dated 2011)

Key:
Assay type in all cases: in vivo
Conditions in all cases: wettable powder applied 3 days after transplanting, judged after 25 days
[1] = tested on: Cyperus serotinus; assay: Test Example 1: herbicidal effects, paddy-field pot test
Experimental: (§1) A paddy soil was filled in 1/10,000 are pot, and seeds of barnyardgrass (Echinochloa oryzicola Vasing.), Scirpus joncoides and annual broad-leaved weeds (Lindernia spp., Rotala indica) which are awaken from dormancy were mixed at the surface layer of 1 cm. Also, tuber of Cyperus serotinus which is germinated was planted, and further seedlings of paddy-field rice at 2.2-leaf stage were transplanted, and they were grown under the flooded condition in a greenhouse. After 3 days from transplanting, a predetermined chemical dosage of the wettable powder prepared in accordance with Preparation example 1 was diluted in water, and the solution was applied to the pot and herbicidal effects and crop injury against transplanted paddy-field rice were judged after 25 days from the treatment. Also, 3-(2-allylphenoxy)-6-chloro-4-methoxypyridazine described in Chemical Pharmaceutical Bulletin, 1972, vol. 20, No. 10, pp. 2191-2203 was used as Comparative compound. Incidentally, herbicidal effects and crop injury against transplanted paddy-field rice were judged by the following judgment standard, and “-” in the table means no test was carried out.
(§2) Judgment Standard • 0: Growth inhibition rate; 0 to 10% • 1: Growth inhibition rate; 11 to 30% • 2: Growth inhibition rate; 31 to 50% • 3: Growth inhibition rate; 51 to 70% • 4: Growth inhibition rate; 71 to 90% • 5: Growth inhibition rate; 91 to 100%.

[2] = tested on: Scirpus joncoides; assay: as above
Experimental: as §1, §2

[3] = tested on: annual broad-leaved weeds (Lindernia spp., Rotala indica); assay: as above
Experimental: as §1, §2

[4] = tested on: barnyardgrass (Echinochloa oryzicola Vasing.); assay: as above
Experimental: as §1, §2

[5] = tested on: transplanted paddy-field rice; assay: Test Example 1: crop injury against transplanted paddy-field rice
Experimental: as §1, §2

| Compound | Herbicidal effects Cyperus serotinus ([1]; chemical dosage 12.5 g/a) | Herbicidal effects Cyperus serotinus ([1]; chemical dosage 25 g/a) | Herbicidal effects Scirpus joncoides ([2]; chemical dosage 12.5 g/a) | Herbicidal effects Scirpus joncoides ([2]; chemical dosage 25 g/a) | Herbicidal effects Broad leaf ([3]; chemical dosage 12.5 g/a) | Herbicidal effects Broad leaf ([3]; chemical dosage 25 g/a) | Herbicidal effects Barnyard grass ([4]; chemical dosage 12.5 g/a) | Herbicidal effects Barnyard grass ([4]; chemical dosage 25 g/a) | Crop injury against transplanted rice ([5]; chemical dosage 12.5 g/a) | Crop injury against transplanted rice ([5]; chemical dosage 25 g/a) | Herbicidal effects Cyperus serotinus ([1]; chemical dosage 10 g/a) | Herbicidal effects Cyperus serotinus ([1]; chemical dosage 20 g/a) | Herbicidal effects Scirpus joncoides ([2]; chemical dosage 10 g/a) | Herbicidal effects Scirpus joncoides ([2]; chemical dosage 20 g/a) | Herbicidal effects Broad leaf ([3]; chemical dosage 10 g/a) | Herbicidal effects Broad leaf ([3]; chemical dosage 20 g/a) | Herbicidal effects Barnyard grass ([4]; chemical dosage 10 g/a) | Herbicidal effects Barnyard grass ([4]; chemical dosage 20 g/a) | Crop injury against transplanted rice ([5]; chemical dosage 10 g/a) | Crop injury against transplanted rice ([5]; chemical dosage 20 g/a) |
| --- | --- | --- | --- | --- | --- | --- | --- | --- | --- | --- | --- | --- | --- | --- | --- | --- | --- | --- | --- | --- |
| CCCc1ccccc1Oc1nnc(Cl)cc1O [Example 56] | 4 (Growth inhibition rate; 71 to 90%) | 4 (Growth inhibition rate; 71 to 90%) | 2 (Growth inhibition rate; 31 to 50%) | 3 (Growth inhibition rate; 51 to 70%) | 4 (Growth inhibition rate; 71 to 90%) | 5 (Growth inhibition rate; 91 to 100%) | 0 (Growth inhibition rate; 0 to 10%) | 0 (Growth inhibition rate; 0 to 10%) | 0 (Growth inhibition rate; 0 to 10%) | 0 (Growth inhibition rate; 0 to 10%) |  |  |  |  |  |  |  |  |  |  |
| Cc1cc(C)c(Oc2nnc(Cl)cc2O)c(C)c1 [Example 317] | 5 (Growth inhibition rate; 91 to 100%) | 5 (Growth inhibition rate; 91 to 100%) | 2 (Growth inhibition rate; 31 to 50%) | 3 (Growth inhibition rate; 51 to 70%) | 4 (Growth inhibition rate; 71 to 90%) | 5 (Growth inhibition rate; 91 to 100%) | 0 (Growth inhibition rate; 0 to 10%) | 0 (Growth inhibition rate; 0 to 10%) | 0 (Growth inhibition rate; 0 to 10%) | 1 (Growth inhibition rate; 11 to 30%) |  |  |  |  |  |  |  |  |  |  |
| CC(C)c1cccc(F)c1Oc1nnc(Cl)cc1O [Example 235] |  |  |  |  |  |  |  |  |  |  | 5 (Growth inhibition rate; 91 to 100%) | 5 (Growth inhibition rate; 91 to 100%) | 5 (Growth inhibition rate; 91 to 100%) | 5 (Growth inhibition rate; 91 to 100%) | 5 (Growth inhibition rate; 91 to 100%) | 5 (Growth inhibition rate; 91 to 100%) | 3 (Growth inhibition rate; 51 to 70%) | 3 (Growth inhibition rate; 51 to 70%) | 0 (Growth inhibition rate; 0 to 10%) | 0 (Growth inhibition rate; 0 to 10%) |
| Oc1cc(Cl)nnc1Oc1c(Cl)cccc1I [Example 241] |  |  |  |  |  |  |  |  |  |  | 5 (Growth inhibition rate; 91 to 100%) | 5 (Growth inhibition rate; 91 to 100%) | 3 (Growth inhibition rate; 51 to 70%) | 4 (Growth inhibition rate; 71 to 90%) | 5 (Growth inhibition rate; 91 to 100%) | 5 (Growth inhibition rate; 91 to 100%) | 1 (Growth inhibition rate; 11 to 30%) | 3 (Growth inhibition rate; 51 to 70%) | 0 (Growth inhibition rate; 0 to 10%) | 0 (Growth inhibition rate; 0 to 10%) |
| Oc1cc(Cl)nnc1Oc1cc(F)ccc1C1CC1 [Example 216] |  |  |  |  |  |  |  |  |  |  | 5 (Growth inhibition rate; 91 to 100%) | 5 (Growth inhibition rate; 91 to 100%) | 5 (Growth inhibition rate; 91 to 100%) | 5 (Growth inhibition rate; 91 to 100%) | 5 (Growth inhibition rate; 91 to 100%) | 5 (Growth inhibition rate; 91 to 100%) | 4 (Growth inhibition rate; 71 to 90%) | 4 (Growth inhibition rate; 71 to 90%) | 0 (Growth inhibition rate; 0 to 10%) | 2 (Growth inhibition rate; 31 to 50%) |
| CCc1cccc(Cl)c1Oc1nnc(Cl)cc1O [Example 243] | 5 (Growth inhibition rate; 91 to 100%) | 5 (Growth inhibition rate; 91 to 100%) | 4 (Growth inhibition rate; 71 to 90%) | 4 (Growth inhibition rate; 71 to 90%) | 5 (Growth inhibition rate; 91 to 100%) | 5 (Growth inhibition rate; 91 to 100%) | 1 (Growth inhibition rate; 11 to 30%) | 2 (Growth inhibition rate; 31 to 50%) | 0 (Growth inhibition rate; 0 to 10%) | 0 (Growth inhibition rate; 0 to 10%) |  |  |  |  |  |  |  |  |  |  |
| Oc1cc(Cl)nnc1Oc1c(F)cccc1Cl [Example 232] |  |  |  |  |  |  |  |  |  |  | 4 (Growth inhibition rate; 71 to 90%) | 5 (Growth inhibition rate; 91 to 100%) | 3 (Growth inhibition rate; 51 to 70%) | 4 (Growth inhibition rate; 71 to 90%) | 5 (Growth inhibition rate; 91 to 100%) | 5 (Growth inhibition rate; 91 to 100%) | 4 (Growth inhibition rate; 71 to 90%) | 4 (Growth inhibition rate; 71 to 90%) | 0 (Growth inhibition rate; 0 to 10%) | 0 (Growth inhibition rate; 0 to 10%) |
| CCCS(=O)(=O)Oc1cc(Cl)nnc1Oc1cccc2c1CCC2 [Example 361] |  |  |  |  |  |  |  |  |  |  | 4 (Growth inhibition rate; 71 to 90%) | 5 (Growth inhibition rate; 91 to 100%) | 5 (Growth inhibition rate; 91 to 100%) | 5 (Growth inhibition rate; 91 to 100%) | 5 (Growth inhibition rate; 91 to 100%) | 5 (Growth inhibition rate; 91 to 100%) | 2 (Growth inhibition rate; 31 to 50%) | 3 (Growth inhibition rate; 51 to 70%) | 0 (Growth inhibition rate; 0 to 10%) | 0 (Growth inhibition rate; 0 to 10%) |
| Oc1cc(Cl)nnc1Oc1ccccc1I [Example 52] |  |  |  |  |  |  |  |  |  |  | 5 (Growth inhibition rate; 91 to 100%) | 5 (Growth inhibition rate; 91 to 100%) | 5 (Growth inhibition rate; 91 to 100%) | 5 (Growth inhibition rate; 91 to 100%) | 5 (Growth inhibition rate; 91 to 100%) | 5 (Growth inhibition rate; 91 to 100%) | 3 (Growth inhibition rate; 51 to 70%) | 4 (Growth inhibition rate; 71 to 90%) | 0 (Growth inhibition rate; 0 to 10%) | 0 (Growth inhibition rate; 0 to 10%) |
| CN(C)C(=O)Oc1cc(Cl)nnc1Oc1ccccc1C1CC1 [Example 352] |  |  |  |  |  |  |  |  |  |  |  |  |  | 5 (Growth inhibition rate; 91 to 100%) |  | 5 (Growth inhibition rate; 91 to 100%) |  | 4 (Growth inhibition rate; 71 to 90%) |  | 0 (Growth inhibition rate; 0 to 10%) |
| CCc1ccc(C2CC2)c(Oc2nnc(Cl)cc2O)c1 [Example 219] |  |  |  |  |  |  |  |  |  |  |  |  | 5 (Growth inhibition rate; 91 to 100%) | 5 (Growth inhibition rate; 91 to 100%) | 5 (Growth inhibition rate; 91 to 100%) | 5 (Growth inhibition rate; 91 to 100%) | 3 (Growth inhibition rate; 51 to 70%) | 4 (Growth inhibition rate; 71 to 90%) | 0 (Growth inhibition rate; 0 to 10%) | 0 (Growth inhibition rate; 0 to 10%) |
| CC(C)c1cccc(C(C)C)c1Oc1nnc(Cl)cc1O [Example 271] | 3 (Growth inhibition rate; 51 to 70%) | 4 (Growth inhibition rate; 71 to 90%) | 2 (Growth inhibition rate; 31 to 50%) | 4 (Growth inhibition rate; 71 to 90%) | 5 (Growth inhibition rate; 91 to 100%) | 5 (Growth inhibition rate; 91 to 100%) | 1 (Growth inhibition rate; 11 to 30%) | 2 (Growth inhibition rate; 31 to 50%) |  |  |  |  |  |  |  |  |  |  |  |  |
